Assay results taken from US9650339B2, “Inhibitors of histone demethylases” (Gilead Sciences, Inc., priority 2013, dated 2017).

Legend:
KDM6B (JMJD3) = molecular target: T1, KDM6B (JMJD3) (Homo sapiens, UniProt O15054); assay: Histone lysine demethylase AlphaLISA assay, KDM6B; type: biochemical; conditions: read-out: KDM6B HDME Inhibition IC50
T1 construct: 1043-end; purchased BPS; host or cells: Bac (baculovirus system)
In short: (§1)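 Steps: enzyme equilibrated 10 min in buffer; compounds in 3% DMSO solution added, 10 min; substrate mix added (peptide, 25 μM L-Asc, 10 μM α-KG), room temperature; acceptor beads, then streptavidin donor beads, dark incubations; plate read.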

KDM6A (UTX) = KDM6A (UTX) (Homo sapiens, UniProt O15550); assay: Histone lysine demethylase AlphaLISA assay, KDM6A; type: biochemical; conditions: read-out: KDM6A HDME Inhibition IC50
Sequence of KDM6A (UTX) (O15550 919-1401): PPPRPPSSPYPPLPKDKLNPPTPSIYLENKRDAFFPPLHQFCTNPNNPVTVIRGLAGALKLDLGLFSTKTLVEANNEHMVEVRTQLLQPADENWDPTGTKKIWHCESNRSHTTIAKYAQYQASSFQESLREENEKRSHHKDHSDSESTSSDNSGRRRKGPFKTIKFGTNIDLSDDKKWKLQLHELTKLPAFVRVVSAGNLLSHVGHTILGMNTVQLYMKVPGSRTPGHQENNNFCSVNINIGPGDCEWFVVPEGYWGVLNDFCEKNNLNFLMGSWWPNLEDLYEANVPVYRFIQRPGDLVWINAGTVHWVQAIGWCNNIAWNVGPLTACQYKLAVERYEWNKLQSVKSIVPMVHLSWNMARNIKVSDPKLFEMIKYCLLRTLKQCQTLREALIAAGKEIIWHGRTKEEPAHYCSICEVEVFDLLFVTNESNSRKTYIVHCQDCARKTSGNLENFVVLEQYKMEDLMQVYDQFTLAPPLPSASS
In short: as §1

KDM4C = molecular target: T2, KDM4C (Homo sapiens, UniProt Q9H3R0); assay: Histone lysine demethylase immunofluorescence assay, U2OS cells transfected with KDM4C; type: cell-based; conditions: U2OS cells transfected with pCMVHA KDM4C; mark detected H3K9me3; 20 hours
T2 construct: Full length; host or cells: U2OS
T2 sequence (Q9H3R0 1-1056): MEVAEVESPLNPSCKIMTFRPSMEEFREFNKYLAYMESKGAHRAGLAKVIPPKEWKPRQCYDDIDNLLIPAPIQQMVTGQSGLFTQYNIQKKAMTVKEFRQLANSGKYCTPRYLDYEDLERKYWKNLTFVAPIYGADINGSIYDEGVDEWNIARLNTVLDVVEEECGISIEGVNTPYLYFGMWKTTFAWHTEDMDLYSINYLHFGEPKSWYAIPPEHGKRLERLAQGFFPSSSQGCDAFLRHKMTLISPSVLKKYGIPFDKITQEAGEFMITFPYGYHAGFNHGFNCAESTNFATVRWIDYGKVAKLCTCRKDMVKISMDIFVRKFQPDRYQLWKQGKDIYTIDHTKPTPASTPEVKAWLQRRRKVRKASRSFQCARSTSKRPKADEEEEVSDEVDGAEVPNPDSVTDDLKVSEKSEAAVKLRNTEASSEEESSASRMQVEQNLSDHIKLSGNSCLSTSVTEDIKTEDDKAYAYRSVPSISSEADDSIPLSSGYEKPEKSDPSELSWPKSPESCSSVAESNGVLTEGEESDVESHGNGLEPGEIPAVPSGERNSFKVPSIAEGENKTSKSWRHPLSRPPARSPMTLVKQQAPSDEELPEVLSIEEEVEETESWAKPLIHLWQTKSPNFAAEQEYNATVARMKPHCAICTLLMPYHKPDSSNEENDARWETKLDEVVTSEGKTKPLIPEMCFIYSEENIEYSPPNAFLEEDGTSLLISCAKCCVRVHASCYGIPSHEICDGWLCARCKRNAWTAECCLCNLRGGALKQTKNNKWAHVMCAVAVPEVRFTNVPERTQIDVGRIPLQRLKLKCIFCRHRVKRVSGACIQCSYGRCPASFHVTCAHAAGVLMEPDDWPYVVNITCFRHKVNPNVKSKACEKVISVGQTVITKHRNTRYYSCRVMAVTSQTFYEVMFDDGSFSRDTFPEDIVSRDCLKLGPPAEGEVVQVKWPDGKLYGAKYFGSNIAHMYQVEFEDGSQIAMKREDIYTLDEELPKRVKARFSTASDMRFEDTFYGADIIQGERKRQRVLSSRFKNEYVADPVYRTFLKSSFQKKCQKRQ
In short: (§2)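 U2OS cells were transiently transfected with HA-tagged demethylase and reseeded after 6 h into compound-containing DMEM/10% FBS for 20 h. Cells were fixed in formaldehyde and immunostained for HA and the relevant histone methyl mark, then imaged. IC50 is based on mean mark staining in HA+ transfected cells.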

KDM5B = molecular target: T3, KDM5B (Homo sapiens, UniProt Q9UGL1); assay: Histone lysine demethylase immunofluorescence assay, U2OS cells transfected with KDM5B; type: cell-based; conditions: U2OS cells transfected with pCMVHA KDM5B; mark detected H3K4me2; 20 hours
T3 construct: (a.a. 1-752); host or cells: U2OS
T3 sequence (Q9UGL1 1-752): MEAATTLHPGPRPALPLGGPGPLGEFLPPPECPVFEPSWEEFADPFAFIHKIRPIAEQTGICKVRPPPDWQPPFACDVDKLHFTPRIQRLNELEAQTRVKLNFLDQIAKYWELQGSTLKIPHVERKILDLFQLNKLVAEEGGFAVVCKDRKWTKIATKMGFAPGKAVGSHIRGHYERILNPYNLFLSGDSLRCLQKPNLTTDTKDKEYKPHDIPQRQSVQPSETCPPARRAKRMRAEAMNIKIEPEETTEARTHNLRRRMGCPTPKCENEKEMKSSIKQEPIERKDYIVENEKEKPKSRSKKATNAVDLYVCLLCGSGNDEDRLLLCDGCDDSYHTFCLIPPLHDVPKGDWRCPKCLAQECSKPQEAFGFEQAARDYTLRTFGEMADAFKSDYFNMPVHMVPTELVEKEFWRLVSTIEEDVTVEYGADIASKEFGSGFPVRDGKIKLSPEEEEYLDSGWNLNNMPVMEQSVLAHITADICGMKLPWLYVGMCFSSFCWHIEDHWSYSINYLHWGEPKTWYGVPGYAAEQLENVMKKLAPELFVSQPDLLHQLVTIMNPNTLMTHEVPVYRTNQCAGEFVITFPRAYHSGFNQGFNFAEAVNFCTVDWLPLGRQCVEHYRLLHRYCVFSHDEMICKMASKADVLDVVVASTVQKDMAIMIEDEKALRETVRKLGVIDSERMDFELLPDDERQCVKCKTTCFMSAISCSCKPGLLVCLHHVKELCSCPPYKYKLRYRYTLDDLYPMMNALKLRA
In short: as §2

T1 sequence (O15054 1043-1682 isoform O15054-1 limits assumed): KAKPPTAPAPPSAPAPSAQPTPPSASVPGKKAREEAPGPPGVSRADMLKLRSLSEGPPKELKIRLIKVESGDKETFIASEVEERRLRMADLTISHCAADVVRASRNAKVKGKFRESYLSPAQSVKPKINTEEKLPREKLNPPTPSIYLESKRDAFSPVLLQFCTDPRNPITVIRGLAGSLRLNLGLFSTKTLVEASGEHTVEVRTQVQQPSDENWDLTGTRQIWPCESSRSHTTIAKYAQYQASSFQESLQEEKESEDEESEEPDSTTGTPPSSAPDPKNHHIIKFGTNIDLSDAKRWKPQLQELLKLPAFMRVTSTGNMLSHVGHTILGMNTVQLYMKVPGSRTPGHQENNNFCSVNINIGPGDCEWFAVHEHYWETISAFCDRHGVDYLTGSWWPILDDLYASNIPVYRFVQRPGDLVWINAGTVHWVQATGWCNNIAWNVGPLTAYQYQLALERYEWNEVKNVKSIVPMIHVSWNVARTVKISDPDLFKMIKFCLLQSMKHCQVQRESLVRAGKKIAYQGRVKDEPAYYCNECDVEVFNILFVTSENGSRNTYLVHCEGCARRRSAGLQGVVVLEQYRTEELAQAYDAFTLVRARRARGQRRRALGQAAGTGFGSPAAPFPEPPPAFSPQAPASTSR

Row | SMILES | IC50 (KDM6B (JMJD3)) | IC50 (KDM6A (UTX)) | IC50 (KDM4C) | IC50 (KDM5B)
1 | CCN1CCCC1CNC(=O)CNCc1cc(C=O)ccn1 (stereo not drawn) [Compound 104, N-[(1-ethylpyrrolidin-2-yl)methyl]-2-{[(4-formylpyridin-2-yl)methyl]amino}-acetamide] | > 2.5 µM | > 2.5 µM | > 2.5 µM | 0.25 to 2.5 µM
2 | O=Cc1ccnc(CNCC(=O)N2CCC(Cc3ccccc3)CC2)c1 [Compound 106, 2-({[2-(4-benzylpiperidin-1-yl)-2-oxoethyl]-amino}methyl)-pyridine-4-carbaldehyde] | > 2.5 µM | > 2.5 µM | > 2.5 µM | > 2.5 µM
3 | CN(C)CCNCc1cc(C=O)ccn1 [Compound 110, 2-({[2-(dimethylamino)-ethyl]amino}methyl)-pyridine-4-carbaldehyde] | > 2.5 µM | > 2.5 µM | > 2.5 µM | 0.25 to 2.5 µM
4 | O=Cc1ccnc(CNCCCN2CCCC2)c1 [Compound 111, 2-({[3-(pyrrolidin-1-yl)propyl]amino}-methyl)pyridine-4-carbaldehyde] | > 2.5 µM | > 2.5 µM | > 2.5 µM | < 0.25 µM

Results, then the compound that gave them:

Row | IC50 (KDM6B (JMJD3)) | IC50 (KDM6A (UTX)) | IC50 (KDM4C) | IC50 (KDM5B) | SMILES
5 | > 2.5 µM | > 2.5 µM | > 2.5 µM | 0.25 to 2.5 µM | CCN(CC)C(=O)CNCc1cc(C=O)ccn1 [Compound 105, N,N-diethyl-2-{[(4-formylpyridin-2-yl)methyl]amino}-acetamide]
6 | > 2.5 µM | > 2.5 µM | 0.25 to 2.5 µM | < 0.25 µM | CCN(CC)CCCCNCc1cc(C=O)ccn1 [Compound 107, 2-({[4-(diethylamino)-butyl]amino}-methyl)pyridine-4-carbaldehyde]
7 | > 2.5 µM | > 2.5 µM | 0.25 to 2.5 µM | < 0.25 µM | CN(C)CCCCNCc1cc(C=O)ccn1 [Compound 108, 2-({[4-(dimethylamino)-butyl]amino}methyl)-pyridine-4-carbaldehyde]
8 | > 2.5 µM | > 2.5 µM | > 2.5 µM | > 2.5 µM | CCN(CC)CCCCNC(=O)CNCc1cc(C=O)ccn1 [Compound 112, N-[4-(diethylamino)-butyl]-2-{[(4-formylpyridin-2-yl)methyl]amino}-acetamide]
9 | > 2.5 µM | > 2.5 µM | 0.25 to 2.5 µM | < 0.25 µM | CCN(CC)CCCCN(Cc1cc(C=O)ccn1)C(=O)C(F)(F)F [Compound 115, N-[4-(diethylamino)butyl]-2,2,2-trifluoro-N-[(4-formylpyridin-2-yl)methyl]acetamide]
